Reference: the supplement of paper PMC13207355

How the values were obtained:
Details in all cases: exposure time: 72 h
[1] = test system: E21 (patient-derived glioblastoma stem cells of mesenchymal subtype); experiment: surviving fraction (nuclei count normalised to DMSO); higher = more cells surviving (less toxic)
[2] = test system: E13 (patient-derived glioblastoma stem cells of classical subtype); experiment: as above
[3] = test system: FT3469 (normal neural stem cell line); experiment: as above
[4] = test system: E34 (patient-derived glioblastoma stem cells of proneural subtype); experiment: as above
[5] = test system: E28 (patient-derived glioblastoma stem cells of classical subtype); experiment: as above
[6] = test system: E31 (patient-derived glioblastoma stem cells of proneural subtype); experiment: as above
[7] = test system: E57 (patient-derived glioblastoma stem cells of mesenchymal subtype); experiment: as above
[8] = test system: E21; experiment: phenotypic distance (Euclidean, principal components) from DMSO controls (arbitrary units); higher = stronger morphological change
[9] = test system: E13; experiment: as above
[10] = test system: FT3469; experiment: as above
[11] = test system: E34; experiment: as above
[12] = test system: E28; experiment: as above
[13] = test system: E31; experiment: as above
[14] = test system: E57; experiment: as above
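For phenotypic distance (Euclidean, principal components) from DMSO controls in this document: cell Painting imaging in 384-well plates, CellProfiler features reduced to at least 20 principal components, Euclidean distance versus same-plate DMSO vehicle wells (0.1% v/v), median over six images per well.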
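For surviving fraction (nuclei count normalised to DMSO) in this document: nuclei counted by high-content imaging of Hoechst-stained cells in laminin-coated 384-well plates, relative to 0.1% DMSO vehicle wells, with staurosporine as cell-death control.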

Oc1c(Cl)cc(Cl)c(Cl)c1Cc1c(O)c(Cl)cc(Cl)c1Cl [Hexachlorophene]
Details | phenotypic distance | surviving fraction
[1], 4.1 nM | – | 0.928
[1], 12.3 nM | – | 0.925
[1], 37 nM | – | 0.965
[1], 111.1 nM | – | 0.903
[1], 333.3 nM | – | 0.964
[1], 1000 nM | – | 0.762
[1], 3000 nM | – | 0.552
[2], 4.1 nM | – | 0.829
[2], 12.3 nM | – | 0.908
[2], 37 nM | – | 0.957
[2], 111.1 nM | – | 0.796
[2], 333.3 nM | – | 0.826
[2], 1000 nM | – | 0.68
[2], 3000 nM | – | 0.367
[3], 4.1 nM | – | 0.963
[3], 12.3 nM | – | 0.887
[3], 37 nM | – | 1.07
[3], 111.1 nM | – | 0.895
[3], 333.3 nM | – | 0.922
[3], 1000 nM | – | 0.792
[3], 3000 nM | – | 0.648
[4], 4.1 nM | – | 0.818
[4], 12.3 nM | – | 0.897
[4], 37 nM | – | 1
[4], 111.1 nM | – | 0.845
[4], 333.3 nM | – | 0.754
[4], 1000 nM | – | 0.721
[4], 3000 nM | – | 0.448
[5], 4.1 nM | – | 0.954
[5], 12.3 nM | – | 1.03
[5], 37 nM | – | 1.04
[5], 111.1 nM | – | 0.884
[5], 333.3 nM | – | 1.04
[5], 1000 nM | – | 0.839
[5], 3000 nM | – | 0.748
[6], 4.1 nM | – | 0.956
[6], 12.3 nM | – | 0.937
[6], 37 nM | – | 1.03
[6], 111.1 nM | – | 0.964
[6], 333.3 nM | – | 1.03
[6], 1000 nM | – | 1.18
[6], 3000 nM | – | 0.648
[7], 4.1 nM | – | 0.988
[7], 12.3 nM | – | 1.11
[7], 37 nM | – | 0.949
[7], 111.1 nM | – | 0.977
[7], 333.3 nM | – | 0.908
[7], 1000 nM | – | 0.776
[7], 3000 nM | – | 0.396
[8], 4.1 nM | 1 | –
[8], 12.3 nM | 0.629 | –
[8], 37 nM | 1.26 | –
[8], 111.1 nM | 0.988 | –
[8], 333.3 nM | 1.51 | –
[8], 1000 nM | 2.2 | –
[8], 3000 nM | 4.77 | –
[9], 4.1 nM | 0.81 | –
[9], 12.3 nM | 0.795 | –
[9], 37 nM | 3 | –
[9], 111.1 nM | 0.903 | –
[9], 333.3 nM | 3.34 | –
[9], 1000 nM | 1.8 | –
[9], 3000 nM | 3.77 | –
[10], 4.1 nM | 0.687 | –
[10], 12.3 nM | 1.29 | –
[10], 37 nM | 0.725 | –
[10], 111.1 nM | 0.625 | –
[10], 333.3 nM | 1.47 | –
[10], 1000 nM | 1.56 | –
[10], 3000 nM | 2.68 | –
[11], 4.1 nM | 0.861 | –
[11], 12.3 nM | 0.839 | –
[11], 37 nM | 0.672 | –
[11], 111.1 nM | 0.741 | –
[11], 333.3 nM | 1.14 | –
[11], 1000 nM | 2.31 | –
[11], 3000 nM | 3.14 | –
[12], 4.1 nM | 1.12 | –
[12], 12.3 nM | 0.421 | –
[12], 37 nM | 0.961 | –
[12], 111.1 nM | 0.709 | –
[12], 333.3 nM | 0.784 | –
[12], 1000 nM | 1.11 | –
[12], 3000 nM | 1.45 | –
[13], 4.1 nM | 0.745 | –
[13], 12.3 nM | 0.7 | –
[13], 37 nM | 0.853 | –
[13], 111.1 nM | 0.867 | –
[13], 333.3 nM | 1.39 | –
[13], 1000 nM | 1.83 | –
[13], 3000 nM | 3.79 | –
[14], 4.1 nM | 0.958 | –
[14], 12.3 nM | 0.865 | –
[14], 37 nM | 1 | –
[14], 111.1 nM | 1.03 | –
[14], 333.3 nM | 2.28 | –
[14], 1000 nM | 3.09 | –
[14], 3000 nM | 6.18 | –

CCCCCCCCCCCCCCCC[N+](C)(C)CCN(Cc1ccc(OC)cc1)c1ncccn1 [Thonzonium bromide]
Details | phenotypic distance | surviving fraction
[1], 4.1 nM | – | 0.966
[1], 12.3 nM | – | 1.03
[1], 37 nM | – | 1.03
[1], 111.1 nM | – | 0.987
[1], 333.3 nM | – | 0.962
[1], 1000 nM | – | 0.854
[1], 3000 nM | – | 0.00843
[2], 4.1 nM | – | 1.04
[2], 12.3 nM | – | 0.969
[2], 37 nM | – | 0.906
[2], 111.1 nM | – | 0.816
[2], 333.3 nM | – | 0.606
[2], 1000 nM | – | 0.555
[2], 3000 nM | – | 0.19
[3], 4.1 nM | – | 0.999
[3], 12.3 nM | – | 0.934
[3], 37 nM | – | 0.968
[3], 111.1 nM | – | 0.955
[3], 333.3 nM | – | 0.924
[3], 1000 nM | – | 0.859
[3], 3000 nM | – | 0.00702
[4], 4.1 nM | – | 1.03
[4], 12.3 nM | – | 0.954
[4], 37 nM | – | 1.04
[4], 111.1 nM | – | 0.965
[4], 333.3 nM | – | 0.876
[4], 1000 nM | – | 0.699
[4], 3000 nM | – | 0.0452
[5], 4.1 nM | – | 1.08
[5], 12.3 nM | – | 0.936
[5], 37 nM | – | 1.09
[5], 111.1 nM | – | 1.01
[5], 333.3 nM | – | 0.814
[5], 1000 nM | – | 0.696
[5], 3000 nM | – | 0.00389
[6], 4.1 nM | – | 1.16
[6], 12.3 nM | – | 1.1
[6], 37 nM | – | 1.09
[6], 111.1 nM | – | 0.966
[6], 333.3 nM | – | 0.882
[6], 1000 nM | – | 0.731
[6], 3000 nM | – | 0.034
[7], 4.1 nM | – | 0.925
[7], 12.3 nM | – | 1.04
[7], 37 nM | – | 1.04
[7], 111.1 nM | – | 1.04
[7], 333.3 nM | – | 1.13
[7], 1000 nM | – | 1.01
[7], 3000 nM | – | 0.00426
[8], 4.1 nM | 0.872 | –
[8], 12.3 nM | 0.488 | –
[8], 37 nM | 0.498 | –
[8], 111.1 nM | 0.528 | –
[8], 333.3 nM | 1.11 | –
[8], 1000 nM | 1.7 | –
[8], 3000 nM | 15.4 | –
[9], 4.1 nM | 0.516 | –
[9], 12.3 nM | 0.581 | –
[9], 37 nM | 0.657 | –
[9], 111.1 nM | 1.02 | –
[9], 333.3 nM | 1.87 | –
[9], 1000 nM | 1.97 | –
[9], 3000 nM | 5.26 | –
[10], 4.1 nM | 0.743 | –
[10], 12.3 nM | 3.16 | –
[10], 37 nM | 0.638 | –
[10], 111.1 nM | 0.6 | –
[10], 333.3 nM | 0.582 | –
[10], 1000 nM | 0.946 | –
[10], 3000 nM | 11.4 | –
[11], 4.1 nM | 0.779 | –
[11], 12.3 nM | 0.535 | –
[11], 37 nM | 0.676 | –
[11], 111.1 nM | 0.729 | –
[11], 333.3 nM | 1.9 | –
[11], 1000 nM | 1.38 | –
[11], 3000 nM | 10.2 | –
[12], 4.1 nM | 0.34 | –
[12], 12.3 nM | 0.451 | –
[12], 37 nM | 0.622 | –
[12], 111.1 nM | 1.04 | –
[12], 333.3 nM | 0.781 | –
[12], 1000 nM | 1.5 | –
[12], 3000 nM | 13.5 | –
[13], 4.1 nM | 0.672 | –
[13], 12.3 nM | 0.609 | –
[13], 37 nM | 0.797 | –
[13], 111.1 nM | 1.23 | –
[13], 333.3 nM | 1.32 | –
[13], 1000 nM | 1.09 | –
[13], 3000 nM | 9.07 | –
[14], 4.1 nM | 0.446 | –
[14], 12.3 nM | 0.566 | –
[14], 37 nM | 0.663 | –
[14], 111.1 nM | 1.07 | –
[14], 333.3 nM | 1.33 | –
[14], 1000 nM | 1.72 | –
[14], 3000 nM | 9.5 | –
